According to patent publication US7994185B2, “Benzene sulfonamide thiazole and oxazole compounds” (Glaxo Smith Kline LLC, priority 2008, dated 2011):
Structures can show the parent of a compound that is named as a salt.

Molecular target: T1, BRAFV600E full-length (amino acids 2-766) (Homo sapiens, UniProt P15056, V600E)
T1 construct: His6-tagged BRAFV600E full-length (amino acids 2-766); His6; made in house; host or cells: baculovirus expression system (insect cells)
Test: B-Raf Accelerated MEK ATPase assay (BRAMA)
Assay type: biochemical
Conditions: B-Raf Activity, Table 1a; highest pIC50 for the one or more runs, categorized
Description: Compounds of the present invention were tested for B-Raf protein serine kinase inhibitory activity in a B-Raf Accelerated MEK ATPase assay (BRAMA). […] The BRAMA assay is a high sensitivity assay which measures an intrinsic MEK-mediated ATP hydrolysis uncoupled from downstream ERK phosphorylation by coupling the formation of ADP to NADH oxidation through the enzymes pyruvate kinase and lactate dehydrogenase. When ADP production is initiated by addition of catalytic amounts of an activated Raf enzyme and non-phosphorylated MEK, one observes robust ADP production concomitant with Raf-mediated phosphorylation of MEK. The method is disclosed in: C. Rominger, M. Schaber, E. May. Assay for B-Raf Activity Based on Intrinsic MEK ATPase Activity.

T1 sequence (P15056 2-766 V600E): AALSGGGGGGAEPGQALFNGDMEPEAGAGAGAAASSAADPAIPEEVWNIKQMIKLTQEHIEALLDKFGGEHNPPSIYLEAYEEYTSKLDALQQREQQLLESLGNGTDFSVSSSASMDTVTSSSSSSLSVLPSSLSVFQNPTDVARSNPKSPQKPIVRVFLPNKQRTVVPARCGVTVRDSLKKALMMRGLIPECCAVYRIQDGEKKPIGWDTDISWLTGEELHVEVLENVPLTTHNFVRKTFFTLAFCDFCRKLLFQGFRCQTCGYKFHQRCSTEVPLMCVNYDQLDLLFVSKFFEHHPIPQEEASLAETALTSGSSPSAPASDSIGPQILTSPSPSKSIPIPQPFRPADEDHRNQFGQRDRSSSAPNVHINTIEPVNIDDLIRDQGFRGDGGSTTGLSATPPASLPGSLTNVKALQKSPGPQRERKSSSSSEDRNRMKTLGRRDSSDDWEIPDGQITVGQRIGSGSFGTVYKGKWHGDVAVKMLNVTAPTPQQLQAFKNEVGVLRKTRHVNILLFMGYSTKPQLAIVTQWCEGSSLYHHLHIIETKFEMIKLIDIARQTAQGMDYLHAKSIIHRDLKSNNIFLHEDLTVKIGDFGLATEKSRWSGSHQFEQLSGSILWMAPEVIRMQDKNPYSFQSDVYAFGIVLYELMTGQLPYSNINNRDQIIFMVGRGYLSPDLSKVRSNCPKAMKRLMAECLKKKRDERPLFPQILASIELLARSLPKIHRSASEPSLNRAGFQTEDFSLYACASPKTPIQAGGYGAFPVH

| Structure (SMILES) | IC50 [nM] |
| --- | --- |
| CC(C)c1nc(-c2cccc(NS(=O)(=O)c3cccc(F)c3)c2)c(-c2ccnc(NCC(N)=O)n2)s1 [Example 87, N^2-{4-[4-(3-{[(3-Fluorophenyl)sulfonyl]amino}phenyl)-2-(1-methylethyl)-1,3-thiazol-5-yl]-2-pyrimidinyl}glycinamide] | < 100 |
| CC(C)(C)c1nc(-c2cccc(NS(=O)(=O)c3cc(F)ccc3F)c2)c(-c2ccnc(N)n2)s1 [Example 116, N-{3-[5-(2-Amino-4-pyrimidinyl)-2-(1,1-dimethylethyl)-1,3-thiazol-4-yl]phenyl}-2,5-difluorobenzenesulfonamide] | < 100 |
| CC(C)c1nc(-c2ccc(F)c(NS(=O)(=O)c3c(F)cccc3F)c2)c(-c2ccnc(NCCS(C)(=O)=O)n2)s1 [Example 8, 2,6-Difluoro-N-{2-fluoro-5-[2-(1-methylethyl)-5-(2-{[2-(methylsulfonyl)ethyl]amino}-4-pyrimidinyl)-1,3-thiazol-4-yl]phenyl}benzenesulfonamide] | < 100 |
| CC(C)(C)c1nc(-c2ccc(F)c(NS(=O)(=O)c3c(F)cccc3F)c2)c(-c2ccnc(NCCS(C)(=O)=O)n2)s1 [Example 10, N-{5-[2-(1,1-Dimethylethyl)-5-(2-{[2-(methylsulfonyl)ethyl]amino}-4-pyrimidinyl)-1,3-thiazol-4-yl]-2-fluorophenyl}-2,6-difluorobenzenesulfonamide] | < 100 |

Same assay, conditions: B-Raf pIC50, Table 1b; later runs, average pIC50 for the one or more runs, categorized

| Structure (SMILES) | IC50 [nM] |
| --- | --- |
| O=S(=O)(Nc1cccc(-c2nc(C3CCOCC3)sc2-c2ccnc(NC3CCOCC3)n2)c1F)c1ccoc1 [Example 305, N-(2-fluoro-3-{2-(tetrahydro-2H-pyran-4-yl)-5-[2-(tetrahydro-2H-pyran-4-ylamino)-4-pyrimidinyl]-1,3-thiazol-4-yl}phenyl)-3-furansulfonamide] | ≤ 3.16 |
| Cn1ccc(S(=O)(=O)Nc2cccc(-c3nc(C(C)(C)C)sc3-c3ccnc(N)n3)c2F)n1 [Example 288, N-{3-[5-(2-amino-4-pyrimidinyl)-2-(1,1-dimethylethyl)-1,3-thiazol-4-yl]-2-fluorophenyl}-1-methyl-1H-pyrazole-3-sulfonamide hydrochloride] | 31.6 to 1000 |
| CCN(CC)CCNc1nccc(-c2sc(C3CCOCC3)nc2-c2cccc(NS(=O)(=O)c3ccoc3)c2F)n1 [Example 301, N-{3-[5-(2-{[2-(diethylamino)ethyl]amino}-4-pyrimidinyl)-2-(tetrahydro-2H-pyran-4-yl)-1,3-thiazol-4-yl]-2-fluorophenyl}-3-furansulfonamide] | ≤ 3.16 |
| Nc1nccc(-c2sc(C3CCNCC3)nc2-c2cccc(NS(=O)(=O)c3ccoc3)c2F)n1 [Example 324, N-{3-[5-(2-amino-4-pyrimidinyl)-2-(4-piperidinyl)-1,3-thiazol-4-yl]-2-fluorophenyl}-3-furansulfonamide] | ≤ 3.16 |
| Cc1nccc(-c2sc(C3(C)CCNCC3)nc2-c2cccc(NS(=O)(=O)c3ccoc3)c2F)n1 [Example 320, N-{2-fluoro-3-[2-(4-methyl-4-piperidinyl)-5-(2-methyl-4-pyrimidinyl)-1,3-thiazol-4-yl]phenyl}-3-furansulfonamide] | ≤ 3.16 |
| C[C@H](O)CNc1nccc(-c2sc(C3CCOCC3)nc2-c2cccc(NS(=O)(=O)c3ccoc3)c2F)n1 [Example 303, N-{2-fluoro-3-[5-(2-{[(2S)-2-hydroxypropyl]amino}-4-pyrimidinyl)-2-(tetrahydro-2H-pyran-4-yl)-1,3-thiazol-4-yl]phenyl}-3-furansulfonamide] | ≤ 3.16 |
| C[C@@H](O)CNc1nccc(-c2sc(C3CCOCC3)nc2-c2cccc(NS(=O)(=O)c3ccoc3)c2F)n1 [Example 302, N-{2-fluoro-3-[5-(2-{[(2R)-2-hydroxypropyl]amino}-4-pyrimidinyl)-2-(tetrahydro-2H-pyran-4-yl)-1,3-thiazol-4-yl]phenyl}-3-furansulfonamide] | ≤ 3.16 |
| O=S(=O)(Nc1cccc(-c2nc(C3CCOCC3)sc2-c2ccnc(NCCN3CCCC3)n2)c1F)c1ccoc1 [Example 306, N-{2-fluoro-3-[5-(2-{[2-(1-pyrrolidinyl)ethyl]amino}-4-pyrimidinyl)-2-(tetrahydro-2H-pyran-4-yl)-1,3-thiazol-4-yl]phenyl}-3-furansulfonamide] | ≤ 3.16 |
| Nc1nccc(-c2sc(C3CCNCC3)nc2-c2cccc(NS(=O)(=O)c3c(F)cccc3F)c2F)n1 [Example 322, N-{3-[5-(2-amino-4-pyrimidinyl)-2-(4-piperidinyl)-1,3-thiazol-4-yl]-2-fluorophenyl}-2,6-difluorobenzenesulfonamide] | ≤ 3.16 |
| CC(C)(C)c1nc(-c2cccc(NS(=O)(=O)c3cc(F)ccc3F)c2F)c(-c2ccnc(N)n2)o1 [Example 297, N-{3-[5-(2-amino-4-pyrimidinyl)-2-(1,1-dimethylethyl)-1,3-oxazol-4-yl]-2-fluorophenyl}-2,5-difluorobenzenesulfonamide] | ≤ 3.16 |

Same assay, conditions: Table 1a; highest pIC50 for the one or more runs, categorized; read-out: B-Raf Activity

| Structure (SMILES) | IC50 [nM] |
| --- | --- |
| CC(C)c1nc(-c2ccc(F)c(NS(=O)(=O)c3c(F)cccc3F)c2)c(-c2ccnc(NCCCN(C)C)n2)s1 [Example 169] | > 1000 |
| CC(C)c1nc(-c2ccc(F)c(NS(=O)(=O)c3c(F)cccc3F)c2)c(-c2ccnc(NCCOCCO)n2)s1 [Example 172] | 100 to 1000 |

Same assay, conditions: Table 1b; later runs, average pIC50 for the one or more runs, categorized; read-out: B-Raf pIC50 (converted)

| IC50 [nM] | Structure (SMILES) |
| --- | --- |
| 3.16 to 31.6 | Cc1nccc(-c2sc(C3CCOCC3)nc2-c2cccc(NS(=O)(=O)c3ccoc3)c2F)n1 [Example 314, N-{2-fluoro-3-[5-(2-methyl-4-pyrimidinyl)-2-(tetrahydro-2H-pyran-4-yl)-1,3-thiazol-4-yl]phenyl}-3-furansulfonamide] |
| 3.16 to 31.6 | Cc1nccc(-c2sc(C3CCNCC3)nc2-c2cccc(NS(=O)(=O)c3c(F)cccc3F)c2F)n1 [Example 321, 2,6-difluoro-N-{2-fluoro-3-[5-(2-methyl-4-pyrimidinyl)-2-(4-piperidinyl)-1,3-thiazol-4-yl]phenyl}benzenesulfonamide] |
| 3.16 to 31.6 | CC(C)(N)c1nc(-c2cccc(NS(=O)(=O)c3c(F)cccc3F)c2F)c(-c2ccnc(N)n2)s1 [Example 313, N-{3-[2-(1-amino-1-methylethyl)-5-(2-amino-4-pyrimidinyl)-1,3-thiazol-4-yl]-2-fluorophenyl}-2,6-difluorobenzenesulfonamide] |
| 3.16 to 31.6 | CC(=O)NCc1nccc(-c2sc(N3CCOCC3)nc2-c2cccc(NS(=O)(=O)c3cc(F)ccc3F)c2F)n1 [Example 276, N-({4-[4-(3-{[(2,5-difluorophenyl)sulfonyl]amino}-2-fluorophenyl)-2-(4-morpholinyl)-1,3-thiazol-5-yl]-2-pyrimidinyl}methyl)acetamide] |
| 3.16 to 31.6 | Cc1nccc(-c2sc(C3CCOCC3)nc2-c2cccc(NS(=O)(=O)c3c(F)cccc3F)c2F)n1 [Example 315, 2,6-difluoro-N-{2-fluoro-3-[5-(2-methyl-4-pyrimidinyl)-2-(tetrahydro-2H-pyran-4-yl)-1,3-thiazol-4-yl]phenyl}benzenesulfonamide] |
| 3.16 to 31.6 | Nc1nccc(-c2sc(C3CCOCC3)nc2-c2cccc(NS(=O)(=O)c3ccccn3)c2F)n1 [Example 279, N-{3-[5-(2-amino-4-pyrimidinyl)-2-(tetrahydro-2H-pyran-4-yl)-1,3-thiazol-4-yl]-2-fluorophenyl}-2-pyridinesulfonamide] |

| Structure (SMILES) | IC50 [nM] |
| --- | --- |
| CC(C)c1nc(-c2cccc(NS(=O)(=O)c3cccc(F)c3)c2)c(-c2ccnc(NCC(N)=O)n2)s1 [Example 87, N^2-{4-[4-(3-{[(3-Fluorophenyl)sulfonyl]amino}phenyl)-2-(1-methylethyl)-1,3-thiazol-5-yl]-2-pyrimidinyl}glycinamide] | 3.16 to 31.6 |
| CC(C)(C)c1nc(-c2cccc(NS(=O)(=O)c3cc(F)ccc3F)c2)c(-c2ccnc(N)n2)s1 [Example 116, N-{3-[5-(2-Amino-4-pyrimidinyl)-2-(1,1-dimethylethyl)-1,3-thiazol-4-yl]phenyl}-2,5-difluorobenzenesulfonamide] | 3.16 to 31.6 |
| CC(C)c1nc(-c2ccc(F)c(NS(=O)(=O)c3c(F)cccc3F)c2)c(-c2ccnc(NCCS(C)(=O)=O)n2)s1 [Example 8, 2,6-Difluoro-N-{2-fluoro-5-[2-(1-methylethyl)-5-(2-{[2-(methylsulfonyl)ethyl]amino}-4-pyrimidinyl)-1,3-thiazol-4-yl]phenyl}benzenesulfonamide] | 3.16 to 31.6 |
| CC(C)(C)c1nc(-c2ccc(F)c(NS(=O)(=O)c3c(F)cccc3F)c2)c(-c2ccnc(NCCS(C)(=O)=O)n2)s1 [Example 10, N-{5-[2-(1,1-Dimethylethyl)-5-(2-{[2-(methylsulfonyl)ethyl]amino}-4-pyrimidinyl)-1,3-thiazol-4-yl]-2-fluorophenyl}-2,6-difluorobenzenesulfonamide] | 3.16 to 31.6 |
